The values below come from patent US6710877B2, “Apparatus and methods for determining biomolecular interactions” (Corning Incorporated, priority 2001, dated 2004).

What all share (assay type): binding
Assay [1] has as its target T1, streptavidin (Streptomyces avidinii, UniProt P22629).
T1 construct: purchased Sigma Corp., St. Louis, Mo; B3763
Nature of the assay: Three slot diffraction sensor: leaching of ligand out of the central sensing volume.

In another assay the test system is anti-biotin. The assay is described as follows: Dual compartment absorbance sensor: leaching of ligand from agarose gel containing anti-biotin. The note with it: anti-biotin instead of streptavidin, otherwise as Example 2.
Assay [2] addresses T1, streptavidin. The assay is described as follows: Dual compartment absorbance sensor: leaching of ligand from agarose gel containing streptavidin. The note with it: for effective binding constant k from fit of equation 3 to concentration-time traces: 2.5% agarose gel, streptavidin, 8.4×10^−4 M ligand, 0.1×SSC buffer, 220 nm absorbance; for coefficient1 of fitting function f=coefficient1*Error_Function(coefficient2*time^1/2) / coefficient2 of fitting function f=coefficient1*Error_Function(coefficient2*time^1/2): average of traces, Marquardt-Levenberg fit.

Where two headings read alike, the source gives them in different places.

T1 sequence (P22629 25-183, species assumed): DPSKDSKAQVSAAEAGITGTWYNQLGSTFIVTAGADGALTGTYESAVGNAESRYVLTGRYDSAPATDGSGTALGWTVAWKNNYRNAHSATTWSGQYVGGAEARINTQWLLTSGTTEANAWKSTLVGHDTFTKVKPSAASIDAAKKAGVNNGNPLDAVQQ

As for `NC(=O)CC[C@H](N)C(=O)O` [glutamine], the “leaching out of central sensing volume, peak-to-peak intensity difference versus time (FIG. 10)” value at streptavidin [1] (three samples each, 1×TBE buffer, qualitative) is reported as “much slower than biotin leaching”. Further, the “binding affinities with anti-biotin in upstream compartment (FIGS. 7A and 7B)” value with anti-biotin is recorded as “indistinguishable”. Besides, at streptavidin [2], the “effective binding constant k from fit of equation 3 to concentration-time traces” value came to 0.00325 min⁻¹, the “coefficient1 of fitting function f=coefficient1*Error_Function(coefficient2*time^1/2)” value is ~1.6 mM and the “coefficient2 of fitting function f=coefficient1*Error_Function(coefficient2*time^1/2)” value amounted to 0.0570.

As to `O=C(O)CCCC[C@@H]1SC[C@@H]2NC(=O)N[C@@H]21` [biotin], the “leaching out of central sensing volume, peak-to-peak intensity difference versus time (FIG. 10)” value at streptavidin [1] is “more activity in the biotin traces”. The “binding affinities with anti-biotin in upstream compartment (FIGS. 7A and 7B)” value in the assay with anti-biotin is on record as “indistinguishable”. For the same compound, on streptavidin [2], the “effective binding constant k from fit of equation 3 to concentration-time traces” value was 0.01186 min⁻¹, the “coefficient1 of fitting function f=coefficient1*Error_Function(coefficient2*time^1/2)” value is ~1.5 mM and the “coefficient2 of fitting function f=coefficient1*Error_Function(coefficient2*time^1/2)” value was determined as 0.1089. Also, on streptavidin [2] (biotin versus glutamine curve-fits), the “factor by which binding constant k of biotin exceeds that of glutamine” value turned out to be 4.
